Laboratory results from US8952042B2, “FXR (NR1H4) binding and activity modulating compounds” (Phenex Pharmaceuticals AG, priority 2009, dated 2015).

Experiments:
[1] = Pharmacokinetics in rat after intravenous administration 1 mg/kg; format: in vivo, Male Sprague Dawley Rat; conditions: rat
Protocol: Compounds were applied perorally by gavage at 5 mg/kg each and by i.v. Injection at 1 mg/kg each to male 12 weeks old C57BI/6J or Sprague Dawley rats and plasma concentrations of the test items were determined by LC-MS/MS after time points as indicated. In the case of Cynomolgus monkeys ([…]), the dose was adjusted to 12 mg/kg p.o., no i.v. injection was given (FIG. 1a, 1b and Table 2).
A solution of 2.5 mg/mL of each test item was produced by diluting them in the vehicle, 0.5% Hydroxypropyl-Methylcellulose (w/v) in 20 mM phosphate buffered saline pH 7.4. The solutions were stirred overnight at room temperature and heated to 40° C. for 10 minutes, resulting in fully homogenous suspension. The application was performed by administrating the solution perorally to the mice, with an application volume of 5 mL/kg. For each time point three mice or rats were used. In case of the Cynomolgus monkeys blood samples were obtained by repeated vein puncture. Blood samples were treated with L1-heparin during collection procedure and stored on ice until centrifugation at 645 g (5 min, 4° C.). Plasma was harvested and kept at −20° C. until being assayed. To 50 μL of plasma sample […] acetonitrile containing an internal standard was added. Samples were vigorously shaken and centrifuged for 10 minutes at 6000 g and 20° C. An aliquot of the particle-free supernatant was transferred to 200 μL sampler vials and subsequently subjected to LC MS/MS for quantification.

[2] = test system: C57BLKS lepr^−/− db/db mice; test: Lipid lowering effects in db/db mice; format: in vivo, mouse; conditions: 3 days of dosing at 2×5 mg/kg/day
Protocol: Compounds were applied perorally by gavage at 2×5 mg/kg each to C57BLKS lepr^−/− db/db mice starting at the age of 12 weeks. Animals have been set on a High-Fat Diet (ssniff EF R/M 12330 with 59% (kcal) fat from Ssniff, Soest, Germany) for two weeks prior to start of gavage. Baseline blood was taken by retroorbital bleeding. Blood samples were treated with L1-heparin during collection procedure and stored on ice until centrifugation at 645 g (5 min, 4° C.). Plasma was harvested and kept at −20° C. until being assayed. Total triglycerides and total cholesterol were measured in a 3 μL aliquot of plasma using commercial kits LabAssay™ Triglyceride (Code No 290-63701) and LabAssay™ Cholesterol (Code No 294-65801) from Wako Diagnostics (Neuss, Germany). […]

[3] = UV photostability, irradiation at 254 nm, 1H NMR; format: physicochemical
Protocol: The compounds of interest were dissolved using ethanol and their UV spectrum was analyzed to determine their λmax to establish an irradiation wavelength to be used in the study (see FIG. 2). The best wavelength for testing the UV stability of the —CH═CH— double bond was determined to be 254 nm. Further material of the compounds was then dissolved in deuterated ethanol and the ^1H NMRs (400 MHz) analyzed (T=0). Each sample was then recovered from the NMR tube and subjected to UV irradiation (254 nm) for 4 h, 15 h and 70 h. At the respective timepoints the individual samples were re-analyzed by ^1H NMR and the signal for the —CH═CH— protons evaluated to assess the percent of remaining intact double bond. Other changes in the chemical shift signals were also analyzed for further changes on the overall structure of the molecules.

[4] = according to Akwabi-Ameyaw et al.; cited from earlier work
[5] = attributed to trans-stilbene moiety, Akwabi-Ameyaw et al.; cited from earlier work
[6] = male, Sprague Dawley, plasma, iv, 1 mg/kg i.v.

Compound `CC(C)c1onc(-c2c(Cl)cccc2Cl)c1COc1ccc(/C=C/c2cccc(C(=O)O)c2)c(Cl)c1` [GW4064, reference compound] has an AUC(0-inf) [1, 6] of 294 ng·h/mL, an MRT last [1, 6] of 50.4 min and a Tmax [1, 6] of 4.98 min. For the same compound, the Vd [1, 6] was 5.98 L/kg, the half-life [1, 6] was 73.2 min and the concentration at 0.083 hr ([1]; male, Sprague Dawley, plasma, iv, 1 mg/kg i.v., 0.083 hr) was 405 ng/mL. It also gave a concentration at 0.25 hr ([1]; male, Sprague Dawley, plasma, iv, 1 mg/kg i.v., 0.25 hr) of 208 ng/mL, a concentration at 0.5 hr ([1]; male, Sprague Dawley, plasma, iv, 1 mg/kg i.v., 0.50 hr) of 124 ng/mL and a concentration at 1 hr ([1]; male, Sprague Dawley, plasma, iv, 1 mg/kg i.v., 1.00 hr) of 68.3 ng/mL. It also gave a concentration at 2 hr ([1]; male, Sprague Dawley, plasma, iv, 1 mg/kg i.v., 2.00 hr) of 25 ng/mL, a concentration at 4 hr ([1]; male, Sprague Dawley, plasma, iv, 1 mg/kg i.v., 4.00 hr) of 15 ng/mL and a Cmax ([1]; male, Sprague Dawley, plasma, 1 mg/kg i.v., footnote: Co for Intravenous) of 565 ng/mL. The AUC(0-t) ([1]; male, Sprague Dawley, plasma, iv, 1 mg/kg, read-out: #AUC(0-8)) was 268 ng·h/mL, the “AUC Extrapolated” value ([1]; 1 mg/kg i.v.) was 9.0% and the CI ([1]; 1 mg/kg i.v.) was 56.7083 mL/min/kg. The “change in fasting blood glucose against vehicle” value [2] was −6%, the “behaviour in 1H NMR spectrum after prolonged UV irradiation” value ([3]; 70 h UV irradiation at 254 nm) was “major changes” and the “compound still present in the mixture (1H NMR integration)” value ([3]; 70 h UV irradiation at 254 nm, deuterated ethanol) was “less than 30%”. For the same compound, the compound decayed ([3]; after 70 h UV irradiation at 254 nm) was 70%, the oral bioavailability [4] was “low” and the plasma exposure [4] was “low”. The plasma half life [4] was “short” and the ultraviolet light stability [5] was “instability”.
